The results in this text go back to ChEMBL document CHEMBL4311993, “Structure-activity relationship study of NPP1 inhibitors based on uracil-N1-(methoxy)ethyl-β-phosphate scaffold” (Eur J Med Chem, 2019).

Test [1] deals with P2Y purinoceptor 4 (Homo sapiens) (UniProt P51582). The test can be described thus: Antagonist activity at human P2Y4 receptor expressed in AD293 cells assessed as inhibition of UTP-induced inositol-1-phosphate accumulation at 0.1 to 100 uM. The class given is functional, cell-based.
P2Y purinoceptor 4 (Homo sapiens), sequence (P51582 whole entry): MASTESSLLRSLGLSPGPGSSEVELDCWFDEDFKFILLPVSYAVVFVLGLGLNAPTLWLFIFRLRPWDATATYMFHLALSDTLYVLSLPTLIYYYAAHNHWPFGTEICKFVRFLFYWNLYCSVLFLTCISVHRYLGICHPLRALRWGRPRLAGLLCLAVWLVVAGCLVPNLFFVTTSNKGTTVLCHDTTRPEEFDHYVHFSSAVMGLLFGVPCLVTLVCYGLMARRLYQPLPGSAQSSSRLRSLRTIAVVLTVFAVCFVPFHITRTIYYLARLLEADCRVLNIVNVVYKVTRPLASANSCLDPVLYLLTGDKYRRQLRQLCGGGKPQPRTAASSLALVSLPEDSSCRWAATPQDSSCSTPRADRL
Test [2] has as its target P2Y purinoceptor 2 (Homo sapiens) (UniProt P41231). Put plainly: Antagonist activity at human P2Y2 receptor expressed in AD293 cells assessed as inhibition of UTP-induced inositol-1-phosphate accumulation at 100 uM. The class given is functional, cell-based.
The target in test [3] is T1, Ectonucleoside triphosphate diphosphohydrolase 8 (Homo sapiens) (UniProt Q5MY95).
T1 sequence (whole entry): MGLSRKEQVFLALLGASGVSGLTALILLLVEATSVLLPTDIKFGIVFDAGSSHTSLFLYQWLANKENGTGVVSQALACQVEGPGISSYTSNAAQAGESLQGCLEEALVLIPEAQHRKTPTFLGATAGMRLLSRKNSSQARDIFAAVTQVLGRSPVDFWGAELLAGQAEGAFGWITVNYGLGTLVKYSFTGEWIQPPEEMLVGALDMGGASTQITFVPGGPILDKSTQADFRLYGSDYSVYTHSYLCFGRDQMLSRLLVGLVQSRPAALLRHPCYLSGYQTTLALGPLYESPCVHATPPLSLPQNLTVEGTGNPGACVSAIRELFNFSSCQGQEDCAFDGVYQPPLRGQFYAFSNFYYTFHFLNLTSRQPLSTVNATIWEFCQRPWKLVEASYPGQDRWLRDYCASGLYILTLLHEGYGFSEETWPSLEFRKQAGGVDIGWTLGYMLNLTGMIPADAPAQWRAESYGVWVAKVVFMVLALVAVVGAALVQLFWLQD
Put plainly: Inhibition of human NTPdase-8 expressed in COS7 cell membranes at 100 uM using ATP as substrate preincubated for 3 mins followed by susbtrate addition and measured after 10 mins by malachite green dye based method.

Test [4] deals with P2Y purinoceptor 4 (Homo sapiens) (UniProt P51582). Put plainly: Agonist activity at human P2Y4 receptor expressed in AD293 cells assessed as inositol-1-phosphate accumulation at 0.1 to 100 uM. The format is functional, cell-based.
Test [5] concerns the target T2, Ectonucleoside triphosphate diphosphohydrolase 1 (Homo sapiens) (UniProt P49961).
T2 sequence (whole entry): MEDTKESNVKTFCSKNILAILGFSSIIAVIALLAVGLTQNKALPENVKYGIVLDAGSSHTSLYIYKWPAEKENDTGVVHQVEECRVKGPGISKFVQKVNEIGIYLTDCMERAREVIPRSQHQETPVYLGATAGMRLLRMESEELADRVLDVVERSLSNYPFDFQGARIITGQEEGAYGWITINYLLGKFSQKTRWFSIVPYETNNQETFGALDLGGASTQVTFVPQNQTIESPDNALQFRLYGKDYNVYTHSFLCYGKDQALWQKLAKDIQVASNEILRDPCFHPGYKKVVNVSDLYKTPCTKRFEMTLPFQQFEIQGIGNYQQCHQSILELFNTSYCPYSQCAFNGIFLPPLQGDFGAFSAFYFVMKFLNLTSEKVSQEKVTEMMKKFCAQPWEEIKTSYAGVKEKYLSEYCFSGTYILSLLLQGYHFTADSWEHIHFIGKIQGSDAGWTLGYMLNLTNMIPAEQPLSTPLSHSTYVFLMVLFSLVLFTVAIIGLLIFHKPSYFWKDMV
Put plainly: Inhibition of human NTPdase-1 expressed in COS7 cell membranes at 100 uM using ATP as substrate preincubated for 3 mins followed by susbtrate addition and measured after 10 mins by malachite green dye based method.

Test [6] addresses P2Y purinoceptor 2 (Homo sapiens) (UniProt P41231). The test can be described thus: Agonist activity at human P2Y2 receptor expressed in AD293 cells assessed as inositol-1-phosphate accumulation at 100 uM. The format is functional, cell-based.
The target of test [7] is T3, Ectonucleoside triphosphate diphosphohydrolase 2 (Homo sapiens) (UniProt Q9Y5L3).
T3 sequence (whole entry): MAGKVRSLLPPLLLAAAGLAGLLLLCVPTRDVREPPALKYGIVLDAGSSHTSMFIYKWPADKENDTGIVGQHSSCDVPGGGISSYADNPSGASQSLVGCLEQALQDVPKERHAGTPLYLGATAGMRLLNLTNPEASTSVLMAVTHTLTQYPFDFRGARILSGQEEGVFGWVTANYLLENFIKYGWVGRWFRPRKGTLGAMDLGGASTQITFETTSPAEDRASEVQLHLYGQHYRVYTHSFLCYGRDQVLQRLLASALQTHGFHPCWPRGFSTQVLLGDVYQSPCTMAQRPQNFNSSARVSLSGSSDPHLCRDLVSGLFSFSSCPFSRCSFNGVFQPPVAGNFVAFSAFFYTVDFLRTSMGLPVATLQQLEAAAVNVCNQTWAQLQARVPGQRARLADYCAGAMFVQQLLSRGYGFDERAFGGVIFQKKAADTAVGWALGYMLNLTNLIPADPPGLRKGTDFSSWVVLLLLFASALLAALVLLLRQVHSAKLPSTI
The test can be described thus: Inhibition of human NTPdase-2 expressed in COS7 cell membranes at 100 uM using ATP as substrate preincubated for 3 mins followed by susbtrate addition and measured after 10 mins by malachite green dye based method.

The target of test [8] is P2Y purinoceptor 6 (Homo sapiens) (UniProt Q15077). The test can be described thus: Antagonist activity at human P2Y6 receptor expressed in AD293 cells assessed as inhibition of UDP-induced inositol-1-phosphate accumulation at 0.1 to 100 uM. The format is functional, cell-based.
P2Y purinoceptor 6 (Homo sapiens), sequence (Q15077 whole entry): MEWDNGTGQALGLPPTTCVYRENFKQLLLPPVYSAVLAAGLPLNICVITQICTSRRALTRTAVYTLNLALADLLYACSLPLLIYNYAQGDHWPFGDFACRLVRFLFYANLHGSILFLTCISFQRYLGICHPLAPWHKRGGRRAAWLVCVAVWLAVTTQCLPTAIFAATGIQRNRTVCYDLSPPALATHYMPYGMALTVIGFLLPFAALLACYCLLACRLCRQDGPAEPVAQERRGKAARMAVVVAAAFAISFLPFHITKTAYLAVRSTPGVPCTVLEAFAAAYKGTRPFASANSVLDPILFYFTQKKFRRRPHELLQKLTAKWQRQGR
Test [9] has as its target T4, Ectonucleoside triphosphate diphosphohydrolase 3 (Homo sapiens) (UniProt O75355).
T4 sequence (whole entry): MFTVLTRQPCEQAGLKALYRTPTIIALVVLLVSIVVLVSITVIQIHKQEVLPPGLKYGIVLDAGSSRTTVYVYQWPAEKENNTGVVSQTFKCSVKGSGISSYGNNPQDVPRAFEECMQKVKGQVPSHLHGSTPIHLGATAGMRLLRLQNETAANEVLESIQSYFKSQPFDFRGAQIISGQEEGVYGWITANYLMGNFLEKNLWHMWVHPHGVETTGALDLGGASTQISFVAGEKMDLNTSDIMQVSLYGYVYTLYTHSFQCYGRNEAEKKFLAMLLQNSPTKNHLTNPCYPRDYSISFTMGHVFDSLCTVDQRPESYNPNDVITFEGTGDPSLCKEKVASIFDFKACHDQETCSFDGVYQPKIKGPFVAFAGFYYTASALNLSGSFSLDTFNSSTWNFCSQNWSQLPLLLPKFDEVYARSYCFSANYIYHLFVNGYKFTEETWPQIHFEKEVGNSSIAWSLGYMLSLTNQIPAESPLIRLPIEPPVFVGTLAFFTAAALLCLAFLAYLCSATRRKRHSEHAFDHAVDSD
Put plainly: Inhibition of human NTPdase-3 expressed in COS7 cell membranes at 100 uM using ATP as substrate preincubated for 3 mins followed by susbtrate addition and measured after 10 mins by malachite green dye based method.

SMILES strings stand for the structures. Calls of active or inactive are those of the source.

P2Y purinoceptor 2 (Homo sapiens), sequence (P41231 whole entry): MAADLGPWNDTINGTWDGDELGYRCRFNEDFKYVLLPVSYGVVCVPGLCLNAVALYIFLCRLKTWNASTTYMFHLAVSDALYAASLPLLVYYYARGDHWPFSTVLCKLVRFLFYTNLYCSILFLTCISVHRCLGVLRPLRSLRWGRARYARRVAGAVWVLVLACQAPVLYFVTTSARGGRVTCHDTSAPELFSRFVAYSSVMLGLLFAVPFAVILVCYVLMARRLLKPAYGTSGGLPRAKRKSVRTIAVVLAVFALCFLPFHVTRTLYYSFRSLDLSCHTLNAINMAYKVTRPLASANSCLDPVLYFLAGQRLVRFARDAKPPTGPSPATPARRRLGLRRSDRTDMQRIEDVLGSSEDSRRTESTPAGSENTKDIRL

Regarding `O=c1ccn(COCCOP(=S)(S)OP(=O)(O)CP(=O)(O)O)c(=O)[nH]1` (configuration not stated), the inhibition result in [1], in test [2] and in [8] was “inactive” in each case. Besides, in [3], the “Inhibition call (active/not active)” value was “Active”. Besides, the outcome in [4] and in test [6] was inactive. Further, the “inhibition call at 100 uM (active/not active)” value in [5] was “Active”. For the same compound, the inhibition entry in test [7] and in test [9] was “Active” in each case.
`O=c1ccn(COCCO[PH](=O)O)c(=O)[nH]1`: the inhibition result in test [1], in [2], in test [7], in [8] and in test [9] was “inactive” in each case. Besides, the “Inhibition call (active/not active)” value in test [3] was “inactive”. In addition, the outcome in [4] and in test [6] was inactive. In addition, in test [5], the “inhibition call at 100 uM (active/not active)” value is “inactive”.
With `O=c1ccn(COCCOP(=O)(O)C(Cl)(Cl)P(=O)(O)O)c(=O)[nH]1`, the inhibition entry in test [1], in test [2] and in test [8] was “inactive” each time. For the same compound, the “Inhibition call (active/not active)” value in test [3] was “Active”. In addition, the outcome in [4] and in [6] was inactive. Besides, the “inhibition call at 100 uM (active/not active)” value in [5] is “Active”. Moreover, the inhibition entry in [7] and in test [9] was “Active” each time.
In the case of `O=c1ccn(COCCOP(=S)(S)OP(=O)(O)C(Cl)(Cl)P(=O)(O)O)c(=O)[nH]1` (configuration not stated), the inhibition result in test [1], in test [2] and in [8] was “inactive” each time. Besides, the “Inhibition call (active/not active)” value in [3] is “Active”. The result in test [4] and in [6] was inactive. Moreover, the “inhibition call at 100 uM (active/not active)” value in test [5] is “Active”. In addition, the inhibition entry in test [7] and in test [9] was “Active” in each case.
Turning to `O=c1ccn(COCCOP(=O)(O)CP(=O)(O)O)c(=O)[nH]1`, the inhibition entry in test [1] and in test [8] was “inactive” throughout. Further, the “Inhibition call (active/not active)” value in [3] is “Active”. Also, the outcome in test [4] was inactive. Further, in [5], the “inhibition call at 100 uM (active/not active)” value is “Active”. Also, the inhibition entry in [7] and in test [9] was “Active” in each case.
Regarding `O=c1ccn(COCCOP(=O)(O)O)c(=O)[nH]1`, the inhibition result in test [1], in test [2], in test [7], in test [8] and in [9] was “inactive” throughout. Moreover, the “Inhibition call (active/not active)” value in test [3] was “inactive”. Moreover, the outcome in test [4] and in test [6] was inactive. Also, the “inhibition call at 100 uM (active/not active)” value in test [5] was “inactive”.
